These results are taken from patent publication US20060122181A1, “Heteroaromatic pentacyclic compound and medicinal use thereof” (Japan Tobacco Inc., priority 2003, published 2006).

A value given as a limit tells only on which side of the number the result lay.

The target in data set [1] is T1, Recombinant human protein tyrosine phosphatase 1B (Homo sapiens, UniProt P18031).
T1 construct: purchased UBI
T1 sequence (P18031 1-435): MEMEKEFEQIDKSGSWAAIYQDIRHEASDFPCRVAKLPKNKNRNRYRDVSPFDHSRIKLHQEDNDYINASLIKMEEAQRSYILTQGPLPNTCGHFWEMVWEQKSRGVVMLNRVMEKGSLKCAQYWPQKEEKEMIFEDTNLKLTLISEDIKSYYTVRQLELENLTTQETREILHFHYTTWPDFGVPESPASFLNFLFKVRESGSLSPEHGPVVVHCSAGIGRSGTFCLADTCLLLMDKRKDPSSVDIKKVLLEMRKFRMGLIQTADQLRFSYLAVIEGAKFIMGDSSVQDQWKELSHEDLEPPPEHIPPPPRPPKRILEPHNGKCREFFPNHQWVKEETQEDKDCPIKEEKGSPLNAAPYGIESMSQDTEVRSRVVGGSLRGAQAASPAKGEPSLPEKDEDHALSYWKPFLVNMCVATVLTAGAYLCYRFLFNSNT
The data set is described as follows: Protein tyrosine phosphatase 1B inhibitory activity (malachite green, phosphorylated insulin receptor peptide substrate). In kind it is biochemical. To be noted: recombinant human PTP1B, 60 min room temperature, absorbance 650 nm. Here is the method:
Preparation of Assay Buffer:
A 50 mM Tris-HCl buffer (pH 7.5), 50 mM NaCl and 3 mM dithiothreitol (DTT) were prepared.
[…] 0.1, 0.3, 1, 3 and 10 μM of the test compound were prepared and diluted with the above-mentioned assay buffer to the final dimethyl sulfoxide (DMSO) concentration of not more than 1%. As the control, the assay buffer was used.
Preparation of Substrate:
Recombinant human protein tyrosine phosphatase 1B (manufactured by UBI) was diluted with the above-mentioned assay buffer (1.2 ng/25 μl).
The sample (10 μl) prepared as mentioned above and a substrate (25 μl) were successively added to a 96 well plate, and the enzyme (25 μl) prepared as mentioned above was added and mixed. The mixture was incubated at room temperature for 60 min and a malachite green (120 μl, Biomol), which is a color reagent, was added. The mixture was further incubated at room temperature for 20 min to allow for color development. An absorbance at 650 nm was measured on a plate reader based on which the protein tyrosine phosphatase 1B inhibitory activity of the test compound was evaluated.

The next data set has as its system male ob/ob mice. The data set is described as follows: Hypoglycemic activity in ob/ob mice. It counts as in vivo. To be noted: fasting, relative to control group. Here is the method:
A 0.5% methyl cellulose suspension of the test compound was orally administered to 6- to 9-week-old male ob/ob mice grouped according to the glucose level. Only a 0.5% methyl cellulose solution was administered to a control group.
Blood was drawn under fasting condition, which condition was started simultaneously with the administration by means of removing the feed. The blood was drawn under anesthesia from the orbital vein 3 hours after the administration. The blood thus taken was centrifuged and the glucose level was measured from the obtained plasma by the hexokinase method (glucose measurement kit). For evaluation, the percentage (%) of decrease in the glucose level of the test compound-administered group relative to the control group is shown.

As for `CCC(CC)c1ccc(N(Cc2ccc(-c3csc(COc4cncc(C(=O)O)c4)n3)cc2)C(C)C)cc1` [Example 1-1, 5-{4-[4-({[4-(1-Ethylpropyl)phenyl]isopropylamino}methyl)-phenyl]thiazol-2-ylmethoxy}nicotinic acid], in data set [1], the IC50 was 0.28 µM. For the same compound, the “blood glucose decreasing rate (%) 3 hours later” value in the data set on male ob/ob mice (dose 1 mg/kg oral) is recorded as 45%.
Taken in the same sequence, the figures for `CCCC(CCC)c1ccc(N(C)Cc2ccc(-c3csc(CN(C)S(=O)(=O)c4ccc(C(=O)O)cc4)n3)cc2)cc1` [Example 1-15] were 0.13 µM and 35%.
In turn, `CCCC(CCC)c1ccc(N(C)Cc2ccc(-c3csc(N(C)Cc4ccc(C(=O)O)cc4)n3)cc2)cc1` [Example 1-19] returned a melting point of 110 to 113 °C. In addition, the IC50 in data set [1] stood at 0.1 µM. Further, in the data set with male ob/ob mice (dose 1 mg/kg oral), the “blood glucose decreasing rate (%) 3 hours later” value came to 35%.
Taken in the same sequence, the figures for `CCCC(CCC)c1ccc(N(C)Cc2ccc(-c3csc(CN(CC(=O)O)Cc4ccccc4)n3)cc2)cc1` [Example 1-25] were 138 °C, 0.13 µM and 25%.
On to `CN(Cc1ccc(C(=O)O)cc1)c1nc(-c2ccc(COc3ccc(C4CCCCC4)cc3)cc2)cs1` [Example 1-37], for which the melting point fell in the range of 209 to 211 °C. Further, in data set [1], the half-maximal inhibitory concentration (IC50) was 0.14 µM. Moreover, the “blood glucose decreasing rate (%) 3 hours later” value with male ob/ob mice (dose 3 mg/kg oral) was determined as 26%.
In the case of `CCCC(CCC)c1ccc(OCc2ccc(-c3csc(N(C)Cc4ccc(C(=O)O)cc4)n3)cc2)cc1` [Example 1-39], the melting point fell in the range of 156 to 158 °C. The IC50 in data set [1] turned out to be 0.19 µM. Besides, the “blood glucose decreasing rate (%) 3 hours later” value in the data set on male ob/ob mice (dose 1 mg/kg oral) is given as 32%.
Turning to `CCCC(CCC)c1ccc(OCc2ccc(-c3csc(CN(CC(=O)O)Cc4ccccc4)n3)cc2)cc1` [Example 1-44], the melting point lay within 138 to 142 °C. Besides, the IC50 in data set [1] amounted to 0.22 µM. In addition, the “blood glucose decreasing rate (%) 3 hours later” value in the data set on male ob/ob mice (dose 1 mg/kg oral) was found to be 20%.
Consider `CCC(CC)c1ccc(N(Cc2ccc(-c3csc(CN(CC(=O)O)CC(=O)Nc4ccc(C(C)C)cc4)n3)cc2)C(C)C)cc1` [Example 1-78], for which the half-inhibitory concentration (IC50) in data set [1] is 0.18 µM. For the same compound, the “blood glucose decreasing rate (%) 3 hours later” value in the data set with male ob/ob mice (dose 3 mg/kg oral) amounted to 24%.
Taken in the same sequence, the figures for `CCCC(CCC)c1ccc(CN(C)c2ccc(-c3csc(CN(CC(=O)O)Cc4ccccc4)n3)cc2)cc1` [Example 3-36] were 0.1 µM and 52%.
For `CN(Cc1ccc([C@H]2CC[C@H](C)CC2)cc1)c1ccc(-c2csc(CN(CC(=O)O)Cc3ccccn3)n2)cc1` [Example 3-52], in data set [1], the IC50 was 0.54 µM. Besides, the “blood glucose decreasing rate (%) 3 hours later” value with male ob/ob mice (dose 1 mg/kg oral) amounted to 28%.
Consider `CN(Cc1ccc([C@H]2CC[C@H](C)CC2)cc1)c1ccc(-c2csc(COC(=O)N(CC(=O)O)Cc3ccccc3)n2)cc1` [Example 3-108], for which, in data set [1], the half-inhibitory concentration (IC50) stood at 0.16 µM. The “blood glucose decreasing rate (%) 3 hours later” value in the data set with male ob/ob mice (dose 1 mg/kg oral) came out at 29%.
As for `O=C(O)CCN(Cc1ccccc1)Cc1ccc(-c2ccc3c(c2)CCC3Cc2ccc(C3CCCCC3)cc2)s1` (stereo not shown) [Example 4-84], the melting point was in the range of 121 to 128 °C. Besides, the concentration for half-maximal inhibition (IC50) in data set [1] was 0.27 µM.
For `CCCC(CCC)c1ccc(OCc2ccc(-c3csc(CN(CC(=O)O)Cc4ccc5ccccc5n4)c3)cc2)cc1` [Example 4-87], in that order: 137.3 to 138.7 °C and 0.12 µM.
For `CCCC(CCC)c1ccc(OCc2ccc(-c3csc(CN(CC(=O)O)Cc4nc5ccccc5s4)c3)cc2)cc1` [Example 4-88], in that order: 150.9 to 152.8 °C and below 0.1 µM.
For `CCCC(CCC)c1ccc(OCc2ccc(-c3csc(CN(CC(=O)O)Cc4nccn4Cc4ccccc4)c3)cc2)cc1` [Example 4-89], in that order: 135.2 to 136 °C and 0.49 µM.
Take `CCCC(CCC)c1ccc(OCc2ccc(-c3csc(CN(CC(=O)O)Cc4ccc5[nH]ccc5n4)c3)cc2)cc1` [Example 4-90]: the melting point lay in the range of 203.4 to 205.3 °C. Also, the IC50 in data set [1] turned out to be 0.16 µM.
Taken in the same sequence, the figures for `CCCC(CCC)c1ccc(OCc2ccc(-c3csc(CN(CC(=O)O)Cc4ccc(-n5ccnc5)cc4)c3)cc2)cc1` [Example 4-91] were 167.5 to 169.9 °C and 0.17 µM.
Taken in the same sequence, the figures for `CCCC(CCC)c1ccc(OCc2ccc(-c3csc(CN(CC(=O)O)Cc4cc5ccccc5o4)c3)cc2)cc1` [Example 4-92] were 146.7 to 148.9 °C and below 0.1 µM.
Taken in the same sequence, the figures for `CCCC(CCC)c1ccc(OCc2ccc(-c3csc(CN(CC(=O)O)Cc4ccc(-c5cccs5)s4)c3)cc2)cc1` [Example 4-93] were 203.8 to 206.2 °C and below 0.1 µM.
With `CCCC(CCC)c1ccc(OCc2ccc(-c3ccc(CN(CC(=O)O)Cc4c[nH]c(-c5ccccc5)n4)s3)cc2)cc1` [Example 4-94], the melting point lay in the range of 131.8 to 137.6 °C. Further, in data set [1], the IC50 stood at 0.12 µM.
The compound `CCCC(CCC)c1ccc(OCc2ccc(-c3ccc(CN(CC(=O)O)Cc4c[nH]nc4-c4ccccc4)s3)cc2)cc1` [Example 4-95] showed a melting point of 145.9 to 149.3 °C. Moreover, the IC50 in data set [1] is 0.28 µM.
Taken in the same sequence, the figures for `CCCC(CCC)c1ccc(OCc2ccc(-c3ccc(CN(CC(=O)O)Cc4nc5ccccc5o4)s3)cc2)cc1` [Example 4-96] were 127.4 to 130 °C and 0.12 µM.
Taken in the same sequence, the figures for `CCCC(CCC)c1ccc(OCc2ccc(-c3ccc(CN(CC(=O)O)Cc4cc5ccccc5s4)s3)cc2)cc1` [Example 4-97] were 202.3 to 204.4 °C and 0.11 µM.
`CCCC(CCC)c1ccc(OCc2ccc(-c3ccc(CN(CC(=O)O)Cc4cc(-c5ccccc5)cs4)s3)cc2)cc1` [Example 4-98] registered a melting point of 181.4 to 184.5 °C. Further, the IC50 in data set [1] was below 0.1 µM.
Compound `CCCC(CCC)c1ccc(OCc2ccc(-c3ccc(CN(CC(=O)O)c4nc5ccccc5s4)s3)cc2)cc1` [Example 4-99] yielded a melting point of 104.4 to 107.2 °C. The IC50 in data set [1] was below 0.1 µM.
For `CCCC(CCC)c1ccc(OCc2ccc(-c3ccc(CN(CC(=O)O)S(=O)(=O)c4ccc(Cl)s4)s3)cc2)cc1` [Example 4-100], in that order: 151.2 to 154.4 °C and below 0.1 µM.
For `CCCC(CCC)c1ccc(OCc2ccc(-c3ccc(CN(CC(=O)O)Cc4nc5ccccc5n4CC(=O)N(CC)CC)s3)cc2)cc1` [Example 4-101], in that order: 194.8 to 197 °C and 0.1 µM.
Taken in the same sequence, the figures for `Cc1ccc(OCc2ccc(C3CCCCC3)cc2)c(-c2csc(CN(C)[C@@H](Cc3ccccc3)C(=O)O)c2)c1` [Example 4-102] were 117 to 123.1 °C and 0.37 µM.
As to `Cc1ccc(OCc2ccc(C3CCCCC3)cc2)c(-c2csc(CN(C(=O)C(=O)O)c3ccc4nc(C)sc4c3)c2)c1` [Example 4-104], the melting point was in the range of 115.9 to 121.1 °C. Further, in data set [1], the half-maximal inhibitory concentration (IC50) is 0.2 µM.
As to `C=CCn1c(CN(CC(=O)O)Cc2ccc(-c3ccc(COc4ccc(C(CCC)CCC)cc4)cc3)s2)nc2ccccc21` [Example 4-106], the melting point fell in the range of 141.2 to 144.1 °C. Moreover, the IC50 in data set [1] worked out at 0.16 µM.
Taken in the same sequence, the figures for `CCCC(CCC)c1ccc(OCc2ccc(-c3ccc(CN(CC(=O)O)c4nc(-c5ccc(Cl)cc5)cs4)s3)cc2)cc1` [Example 4-107] were 116 to 117.6 °C and below 0.1 µM.
